Data reported in US8969400B2, “Pharmaceutical compositions of 5-hydroxytryptophan and serotonin-enhancing compound” (Duke University, priority 2007, dated 2015).

Columns and labels:
Type in all cases: in vivo, mouse
extracellular 5-HT = assay: Microdialysis of extracellular 5-HT in frontal cortex, NMRI mice; conditions: citalopram 20 mg/kg, 5-HTP 12.5 mg/kg
Description: (§1) Male NMRI and C57Bl/6j mice (Taconic Europe, St. Laven, DK) weighing 25-35 g were housed and habituated for at least 7 days before the experiments in Macrolon III cages (20×40×18 cm) with eight mice per cage. Chow and water were available ad libitum, with lights on at 6 a.m. and off at 6 p.m. All behavioral testing was conducted during the light phase.
Microdialysis were performed in freely moving mice as previously described in Jacobsen J P et al.; Neuroscience 2005; 132:1055-1072. The flowrate was 1 ul/min and 20 min samples were collected. Four baseline samples were collected whereafter saline, 5-HTP (12.5 mg/kg), citalopram (20 mg/kg) or citalopram+5-HTP were injected and six additional samples where collected. Samples were collected on ice, immediatedly frozen on dry ice and stored at −80° C. until analysis by HPLC-EC.
(§2) 5-HT in tissue and microdialysis samples were analysed using HPLC-EC as previously described in Weikop P et al.; Eur Neuropsychopharmacol 2007; 17:658-671.
(§3) Tail suspension data were analyzed either using one-way ANOVA (single-drug treatments) or two-way ANOVA (paroxetine/5-HTP and citalopram/5-HTP) with Dunnets post-hoc test. Locomotor activity data were analyzed using two-way ANOVA with Dunnets post-hoc test. Tissue 5-HT data were analyzed using students t-test. Microdialysis 5-HT data were analyzed using two-way repeated measures ANOVA with Dunnets post-hoc test.

brain 5-HT = assay: Tissue 5-HT in frontal cortex and hippocampus of NMRI mice (HPLC-EC); conditions: acute administration
Description: as §1
Fluoxetine HCl, desipramine HCL, 5-hydroxytryptamine, citalopram HBr, paroxetine HCl, reboxetine fumarate and duloxetine oxalate. All drugs were administered i.p. in saline in a volume of 10 ml/kg. In the tail suspension and locomotor activity experiments drugs were injected 30 min prior to test.
Mice killed by cervical dislocation and the frontal cortex and hippocampus rapidly dissected, frozen on dry ice and stored at −80° C. until analysis by HPLC-EC.
as §2, §3

NMRI mice = assay: Tail suspension test in NMRI mice; conditions: single drug i.p. 30 min prior to test, 6 min test
Source text: Drug candidates can be screened for antidepressant-like activity by using animal models. In the tail suspension test the mouse is suspended by its tail. The mouse will initially move and struggle but will with time become increasingly immobile. Pretreatment with a clinically effective antidepressant decreases the time spent immobile. This includes selective serotonin re-uptake inhibitors (SSRIs) and drugs inhibiting the noradrenaline reuptake mechanism, as well as some putative antidepressants with non-monoamine pharmacology. […] In animal models of depression, including the tail suspension test, mouse strains differ considerably in their responsiveness to antidepressants. This may parallel the clinical situation where a considerable subset of patients is refractory to pharmacotherapy. […] In our laboratory mice of the NMRI strain consistently fails to repond to SSRIs in the tail suspension test of antidepressant activity, while C57 mice show a strong response (FIG. 1). Male NMRI and C57Bl/6j mice (Taconic Europe, St. […]) weighing 25-35 g were housed and habituated for at least 7 days before the experiments in Macrolon III cages (20×40×18 cm) with eight mice per cage. Chow and water were available ad libitum, with lights on at 6 a.m. and off at 6 p.m. All behavioral testing was conducted during the light phase. […] All drugs were administered i.p. in saline in a volume of 10 ml/kg. In the tail suspension and locomotor activity experiments drugs were injected 30 min prior to test. The tail suspension test employed was a modified version to that described elsewhere. Mice were suspended individually by the tail using adhesive tape (attached 2 cm from tip of the tail) to a hook attached to a strain gauge and left there for 6 min. The duration of immobility was measured using an automated system (Med Associates, USA) during the 6 min testing period. Tail suspension data were analyzed either using one-way ANOVA (single-drug treatments) or two-way ANOVA (paroxetine/5-HTP and citalopram/5-HTP) with Dunnets post-hoc test. Locomotor activity data were analyzed using two-way ANOVA with Dunnets post-hoc test. Tissue 5-HT data were analyzed using students t-test. Microdialysis 5-HT data were analyzed using two-way repeated measures ANOVA with Dunnets post-hoc test.

C57Bl/6j mice = assay: Tail suspension test in C57 mice; conditions: single drug i.p. 30 min prior to test, 6 min test
Source text: Drug candidates can be screened for antidepressant-like activity by using animal models. In the tail suspension test the mouse is suspended by its tail. The mouse will initially move and struggle but will with time become increasingly immobile. Pretreatment with a clinically effective antidepressant decreases the time spent immobile. This includes selective serotonin re-uptake inhibitors (SSRIs) and drugs inhibiting the noradrenaline reuptake mechanism, as well as some putative antidepressants with non-monoamine pharmacology. […] In animal models of depression, including the tail suspension test, mouse strains differ considerably in their responsiveness to antidepressants. […]
The tail suspension test employed was a modified version to that described elsewhere. […] The duration of immobility was measured using an automated system (Med Associates, USA) during the 6 min testing period.
as §3

Row | SMILES | immobility in tail suspension test (NMRI mice) | immobility in tail suspension test (C57Bl/6j mice) | other results
1 | N[C@@H](Cc1c[nH]c2ccc(O)cc12)C(=O)O [5-HTP, 5-hydroxytryptophan] | did not affect immobility |  | increase in extracellular 5-HT in the frontal cortex (extracellular 5-HT): only a modest increase; 5-HT levels ± sem, Frontal Cortex (brain 5-HT; frontal cortex tissue): 122 ± 3.3 % of saline; 5-HT levels ± sem, Hippocampus (brain 5-HT; hippocampus tissue): 83.4 ± 2.6 % of saline; decrease of tissue 5-HT in the hippocampus (brain 5-HT; vs saline): 17%; increase of tissue 5-HT in the frontal cortex (brain 5-HT; vs saline): 22%
2 | CNCCCN1c2ccccc2CCc2ccccc21 [desipramine] | reduced immobility | decreased immobility | 
3 | CNCC[C@H](Oc1cccc2ccccc12)c1cccs1 [duloxetine] | reduced immobility |  | 
4 | CNCCC(Oc1ccc(C(F)(F)F)cc1)c1ccccc1 (stereo not shown) [fluoxetine] | without effect |  | 
5 | Fc1ccc([C@@H]2CCNC[C@H]2COc2ccc3c(c2)OCO3)cc1 [paroxetine] | without effect |  | 
6 | CCOc1ccccc1OC(c1ccccc1)C1CNCCO1 (stereo not shown) [reboxetine] | reduced immobility | decreased immobility | 
